# Reference: patent publication US12060355B2, “Compounds for use in the treatment of fascioliasis” (Merck Patent GmbH, priority 2018, dated 2024)
# Test system: human HepG2 cell lines
# Type: cell-based
# Conditions: human HepG2 cell line
row,SMILES,Cytotox HepG2
1,"CC(C)Oc1cccc(-c2cn3c(-c4ccc5[nH]ncc5c4F)c(C(F)(F)F)nc3cn2)c1 [Example 86, 3-(4-Fluoro-1H-indazol-5-yl)-6-(3-isopropoxy-phenyl)-2-trifluoromethyl-imidazo[1,2-a]pyrazine]",13.2 µM
2,"Cc1nc2cnc(-c3cccc(C(F)(F)C(F)(F)F)c3)cn2c1-c1c(F)cc(O)cc1F [Example 49, 3,5-difluoro-4-[2-methyl-6-[3-(pentafluoroethyl)phenyl]imidazo[1,2-a]pyrazin-3-yl]phenol]",9.3 µM
3,"Fc1ccc(-c2cn3c(-c4ccc5[nH]ncc5c4F)c(C(F)(F)F)nc3cn2)cc1C(F)(F)C(F)(F)F [Example 63, 3-(4-Fluoro-1H-indazol-5-yl)-6-(4-fluoro-3-pentafluoroethyl-phenyl)-2-trifluoromethyl-imidazo[1,2-a]pyrazine]",11.7 µM
4,"CC(C)c1cc(-c2cn3c(-c4ccc5[nH]ncc5c4F)c(C4CC4)nc3cn2)ccc1F [Example 79, 2-Cyclopropyl-3-(4-fluoro-1H-indazol-5-yl)-6-(4-fluoro-3-isopropyl-phenyl)-imidazo[1,2-a]pyrazine]",15.7 µM
5,"CC(C)c1cc(-c2cn3c(-c4ccc5[nH]ncc5c4F)c(C(F)(F)F)nc3cn2)ccn1 [Example 87, 3-(4-Fluoro-1H-indazol-5-yl)-6-(2-isopropyl-pyridin-4-yl)-2-trifluoromethyl-imidazo[1,2-a]pyrazine]",9.5 µM
6,"Fc1ccc(-c2cn3c(-c4ccc5[nH]ncc5c4F)c(C(F)(F)F)nc3cn2)cc1C1CCC1 [Example 82, 6-(3-Cyclobutyl-4-fluoro-phenyl)-3-(4-fluoro-1H-indazol-5-yl)-2-trifluoromethyl-imidazo[1,2-a]pyrazine]",6.1 µM
7,"Oc1cc(F)c(-c2c(C3CC3)nc3cnc(-c4ccc(F)c(C(F)(F)F)c4)cn23)c(F)c1 [Example 34, 4-(2-cyclopropyl-6-(4-fluoro-3-(trifluoromethyl)phenyl)imidazo[1,2-a]pyrazin-3-yl)-3,5-difluorophenol]",8.9 µM
8,"CC(C)c1nc2cnc(-c3cccc(S(F)(F)(F)(F)F)c3)cn2c1-c1c(F)cc(O)cc1F [Example 39, 3,5-difluoro-4-[2-(propan-2-yl)-6-[3-(pentafluorosulfanyl)phenyl]imidazo[1,2-a]pyrazin-3-yl]phenol]",6.6 µM
9,"CC(C)c1nn2cnc(-c3ccc(F)c(C(F)(F)C(F)(F)F)c3)cc2c1-c1ccc2[nH]ncc2c1F [Example 58, 3-(4-Fluoro-1H-indazol-5-yl)-5-(4-fluoro-3-pentafluoroethyl-phenyl)-2-isopropyl-pyrazolo[1,5-c]pyrimidine]",10.8 µM
10,"Fc1ccc(-c2cn3c(-c4ccc5[nH]ncc5c4F)c(C4CC4)nc3cn2)cc1S(F)(F)(F)(F)F [Example 57, 2-Cyclopropyl-3-(4-fluoro-1H-indazol-5-yl)-6-(4-fluoro-3-pentafluorosulfanyl-phenyl)-imidazo[1,2-a]pyrazine]",14.8 µM
11,"Cc1nc2cnc(-c3ccc(F)c(C(F)(F)F)c3)cn2c1-c1c(F)cc(O)cc1F [Example 16, 3,5-difluoro-4-[2-methyl-6-[4-fluoro-3-(trifluoromethyl)phenyl]imidazo[1,2-a]pyrazin-3-yl]phenol]",7.6 µM
12,"CC(C)c1cc(-c2cn3c(-c4ccc5[nH]ncc5c4F)c(C(F)(F)F)nc3cn2)ccc1F [Example 67, 3-(4-Fluoro-1H-indazol-5-yl)-6-(4-fluoro-3-isopropyl-phenyl)-2-trifluoromethyl-imidazo[1,2-a]pyrazine]",17.0 µM
13,"Cc1nc2cnc(-c3cccc(C(F)(F)F)c3)cn2c1-c1c(F)cc(O)cc1F [Example 15, 3,5-difluoro-4-[2-methyl-6-[3-(trifluoromethyl)phenyl]imidazo[1,2-a]pyrazin-3-yl]phenol]",8.4 µM
14,"Fc1ccc(-c2cn3c(-c4ccc5[nH]ncc5c4F)c(C(F)(F)F)nc3cn2)cc1S(F)(F)(F)(F)F [Example 65, 3-(4-Fluoro-1H-indazol-5-yl)-6-(4-fluoro-3-pentafluorosulfanyl-phenyl)-2-trifluoromethyl-imidazo[1,2-a]pyrazine]",11.1 µM
15,"CCc1nc2cnc(-c3ccc(F)c(C(C)C)c3)cn2c1-c1ccc2[nH]ncc2c1F [Example 75, 2-Ethyl-3-(4-fluoro-1H-indazol-5-yl)-6-(4-fluoro-3-isopropyl-phenyl)-imidazo[1,2-a]pyrazine]",11.3 µM
16,"CC(C)c1nc2cnc(-c3cccc(C(F)(F)F)c3)nc2n1-c1ccc(O)cc1F [Example 90, 3-fluoro-4-[8-(propan-2-yl)-2-[3-(trifluoromethyl)phenyl]-9H-purin-9-yl]phenol]",9.3 µM
17,"Oc1cc(F)c(-c2c(C3CCC3)nc3cnc(-c4ccc(F)c(C(F)(F)F)c4)cn23)c(F)c1 [Example 35, 4-(2-cyclobutyl-6-(4-fluoro-3-(trifluoromethyl)phenyl)imidazo[1,2-a]pyrazin-3-yl)-3,5-difluorophenol]",5.7 µM
18,"Fc1ccc(-c2cn3c(-c4ccc5[nH]ncc5c4F)c(C4CC4)nc3cn2)cc1C(F)(F)F [Example 32, 4-fluoro-5-{2-cyclopropyl-6-[4-fluoro-3-(trifluoromethyl)phenyl]imidazo[1,2-a]pyrazin-3-yl}-1H-indazole]",16.1 µM
19,"Fc1c(-c2c(C(F)(F)F)nc3cnc(-c4cccc(OC(F)(F)F)c4)cn23)ccc2[nH]ncc12 [Example 72, 3-(4-Fluoro-1H-indazol-5-yl)-6-(3-trifluoromethoxy-phenyl)-2-trifluoromethyl-imidazo[1,2-a]pyrazine]",9.7 µM
20,"CC(C)c1cc(-c2cn3c(-c4ccc5[nH]ncc5c4F)c(C4CCC4)nc3cn2)ccc1F [Example 77, 2-Cyclobutyl-3-(4-fluoro-1H-indazol-5-yl)-6-(4-fluoro-3-isopropyl-phenyl)-imidazo[1,2-a]pyrazine]",10.8 µM
21,"Fc1c(-c2c(C3CC3)nc3cnc(-c4cccc(S(F)(F)(F)(F)F)c4)cn23)ccc2[nH]ncc12 [Example 46, 2-cyclopropyl-3-(4-fluoro-1H-indazol-5-yl)-6-(3-(pentafluoro-λ6-sulfaneyl)phenyl)imidazo[1,2-a]pyrazine]",20.7 µM
22,"Fc1ccc(-c2cn3c(-c4ccc5[nH]ncc5c4F)c(C(F)(F)F)nc3cn2)cc1C1CC1 [Example 84, 6-(3-Cyclopropyl-4-fluoro-phenyl)-3-(4-fluoro-1H-indazol-5-yl)-2-trifluoromethyl-imidazo[1,2-a]pyrazine]",10.5 µM
23,"Fc1c(-c2c(C(F)(F)F)nc3cnc(-c4cccc(C(F)(F)C(F)(F)F)c4)cn23)ccc2[nH]ncc12 [Example 29, 4-fluoro-5-{2-trifluoromethyl-6-[3-(pentafluoroethyl)phenyl]imidazo[1,2-a]pyrazin-3-yl}-1H-indazole]",8.9 µM
24,"CC(C)c1nc2cnc(-c3cccc(C(F)(F)F)c3)cn2c1-c1ccc2[nH]ncc2c1F [Example 21, 4-fluoro-5-{2-propan-2-yl-6-[3-trifluoromethylphenyl]imidazo[1,2-a]pyrazin-3-yl}-1H-indazole]",15.1 µM
25,"CC(C)c1nn2cnc(-c3cccc(C(F)(F)F)c3)cc2c1-c1c(F)cc(O)cc1F [Example 24, 3,5-difluoro-4-(2-isopropyl-5-(3-(trifluoromethyl)phenyl)pyrazolo[1,5-c]pyrimidin-3-yl)phenol]",8.4 µM
